From patent publication US20240239780A1, “MODIFIED FERROPORTIN INHIBITORS” (Vifor (International) AG, priority 2021, published 2024)

The molecules below were run against human Fpn-GFP fusion protein (Homo sapiens, UniProt Q9NP59) (assay: cell-based). Conditions: not given.
Description: Growing HEK-293 #354 cells in doxycycline containing media induced expression of human Fpn-GFP fusion protein on the cell surface.

Sequence of human Fpn-GFP fusion protein (Q9NP59 whole entry, the tested form may be a part): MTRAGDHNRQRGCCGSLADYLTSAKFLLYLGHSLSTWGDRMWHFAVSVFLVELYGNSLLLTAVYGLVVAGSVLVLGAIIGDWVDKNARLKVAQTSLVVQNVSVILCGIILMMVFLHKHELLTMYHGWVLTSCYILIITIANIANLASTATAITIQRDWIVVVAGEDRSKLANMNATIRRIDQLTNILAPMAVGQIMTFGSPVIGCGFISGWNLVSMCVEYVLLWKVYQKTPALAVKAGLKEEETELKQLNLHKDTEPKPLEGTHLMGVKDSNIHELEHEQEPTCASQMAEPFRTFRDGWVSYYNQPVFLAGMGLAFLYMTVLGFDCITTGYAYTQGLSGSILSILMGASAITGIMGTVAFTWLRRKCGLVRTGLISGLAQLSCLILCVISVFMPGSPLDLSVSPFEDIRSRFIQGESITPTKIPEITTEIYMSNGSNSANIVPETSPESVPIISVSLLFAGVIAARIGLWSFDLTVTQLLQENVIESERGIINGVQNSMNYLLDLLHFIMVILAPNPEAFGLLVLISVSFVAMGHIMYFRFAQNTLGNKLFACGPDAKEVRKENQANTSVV

SMILES | EC50
CC[C@H](C)[C@@H]1NC(=O)[C@@H](NC(=O)[C@@H](NC(=O)[C@@H]2CCCN2C(=O)[C@H](Cc2ccccc2)NC(=O)[C@H](Cc2c[nH]cn2)NC(=O)[C@@H](NC(=O)[C@@H](N)CC(=O)O)[C@@H](C)O)[C@@H](C)CC)CSSC[C@@H](C(=O)N[C@@H](CCCCN)C(=O)N[C@H](C(=O)O)[C@@H](C)O)NC(=O)[C@@H]2CSSC[C@@H]3NC(=O)[C@@H]4CSSC[C@H](NC(=O)[C@H](Cc5ccccc5)NC1=O)C(=O)N[C@@H](CSSC[C@H](NC(=O)[C@H](CCCCN)NC(=O)[C@H](CO)NC(=O)[C@H](CCCNC(=N)N)NC(=O)[C@H](Cc1c[nH]cn1)NC3=O)C(=O)NCC(=O)N[C@@H](CCSC)C(=O)N2)C(=O)NCC(=O)N4 [hepcidin] | ~0.004 µM

These molecules were tested against human Fpn (Homo sapiens, UniProt Q9NP59) (assay: biochemical). Conditions: not given.
Sequence of human Fpn (Q9NP59 whole entry): as the sequence (Q9NP59 whole entry, the tested form may be a part) above
Experimental: This biophysical assay was developed to confirm inhibition of hepcidin binding to ferroportin (Fpn) more directly. Incubation of TMR-hepcidin with purified human Fpn isolated from Pichia pastoris yeast cells expressing human Fpn with a C-terminal FLAG affinity tag (Bonaccorsi di Patti, 2014) leads to increased fluorescence polarization (FP) of the TMR-hepcidin ligand.

SMILES | IC50
CC[C@H](C)[C@@H]1NC(=O)[C@@H](NC(=O)[C@@H](NC(=O)[C@@H]2CCCN2C(=O)[C@H](Cc2ccccc2)NC(=O)[C@H](Cc2c[nH]cn2)NC(=O)[C@@H](NC(=O)[C@@H](N)CC(=O)O)[C@@H](C)O)[C@@H](C)CC)CSSC[C@@H](C(=O)N[C@@H](CCCCN)C(=O)N[C@H](C(=O)O)[C@@H](C)O)NC(=O)[C@@H]2CSSC[C@@H]3NC(=O)[C@@H]4CSSC[C@H](NC(=O)[C@H](Cc5ccccc5)NC1=O)C(=O)N[C@@H](CSSC[C@H](NC(=O)[C@H](CCCCN)NC(=O)[C@H](CO)NC(=O)[C@H](CCCNC(=N)N)NC(=O)[C@H](Cc1c[nH]cn1)NC3=O)C(=O)NCC(=O)N[C@@H](CCSC)C(=O)N2)C(=O)NCC(=O)N4 [hepcidin] | ~0.37 µM

The molecules below were run against T1, ferroportin (Fpn) (Mus musculus, UniProt Q9JHI9) (assay: Hepcidin Internalization Assay (J774)). Conditions: J774 cells, TMR-hepcidin 25 nM, 2 hours; read-out: IC 50, average (AVE) of multiple measurements, hepcidin internalization assay.
T1 construct: endogenous in cells; host or cells: J774 mouse macrophage cell line, induced with Fe(III)NTA
T1 sequence (Q9JHI9 1-570): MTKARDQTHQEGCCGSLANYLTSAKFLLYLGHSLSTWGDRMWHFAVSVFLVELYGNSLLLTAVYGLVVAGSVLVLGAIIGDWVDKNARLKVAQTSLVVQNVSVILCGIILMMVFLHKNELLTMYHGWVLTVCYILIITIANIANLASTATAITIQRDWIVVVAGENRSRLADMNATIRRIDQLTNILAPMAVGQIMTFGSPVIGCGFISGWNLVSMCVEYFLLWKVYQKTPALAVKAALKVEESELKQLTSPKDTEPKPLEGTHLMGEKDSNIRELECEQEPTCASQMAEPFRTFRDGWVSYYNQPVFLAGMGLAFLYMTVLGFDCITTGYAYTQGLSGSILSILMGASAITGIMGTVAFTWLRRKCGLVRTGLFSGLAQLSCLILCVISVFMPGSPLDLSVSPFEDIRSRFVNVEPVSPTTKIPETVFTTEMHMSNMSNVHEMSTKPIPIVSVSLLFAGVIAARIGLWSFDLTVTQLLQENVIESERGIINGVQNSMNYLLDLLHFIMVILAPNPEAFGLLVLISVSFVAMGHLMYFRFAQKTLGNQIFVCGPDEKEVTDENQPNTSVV
Assay type: cell-based
Description: This cellular assay allows quantification of the binding of hepcidin to ferroportin (Fpn) through microscopic detection of internalization of a fluorescently labeled hepcidin into J774 cells. […] Binding of hepcidin to Fpn triggers internalization and degradation of both hepcidin and Fpn. […] Therefore, microscopic detection of cell-associated TMR fluorescence is a measure of hepcidin binding to Fpn and internalization of hepcidin and Fpn. If TMR-hepcidin is prevented from binding to Fpn, cellular TMR fluorescence remains low (Dürrenberger et al, 2013). The effect of small molecular weight Fpn inhibitor compounds in this assay was evaluated in vitro as described below. […] Cat. 655090) and grown at 37° C. with 5% CO2. After overnight incubation, cells were washed 3 times with pre-warmed DMEM w/o phenol red, 30 μl/well of DMEM w/o phenol red was added after the final wash and 10 μl/well of dilution series of test compounds were added in triplicates. […] Cells were incubated in a total volume of 50 μl at 37° C. with 5% CO2 for 2 hours, then Hoechst 33342 dye was added to a final concentration of 0.5 μg/ml to stain nuclei and further incubated for 10 min. at 37° C. with 5% CO2. […] After removal of the paraformaldehyde solution, cells were washed 3 times with PBS leaving 100 μl per well and the plates were sealed with foil plate seal. […] The acquired image data was analysed with the […] analysis software. […] IC50 values were calculated with the Sum(Mean) raw data using “log(inhibitor) vs. response” curve fitting of Prism 5 software (GraphPad Software Inc., version 5.02). For each data set the fit of the “log(inhibitor) vs. response (three parameters)” model was compared to the fit of the “log(inhibitor) vs. response-Variable slope (four parameters)” model and the IC50 data of the preferred model was used.

SMILES | IC50
COc1cccc(C#Cc2cccc3nc(CCNCCc4nc(C(=O)NCc5ncccc5F)co4)[nH]c23)c1 [compound 78] | 0.041 µM
O=C(NCc1ncccc1F)c1coc(CCNCCc2nc3cccc(C#Cc4cccc(-c5ncco5)c4)c3[nH]2)n1 [compound 79] | 0.084 µM
O=C(NCc1ncccc1F)c1coc(CCNCCc2nc3cccc(C#Cc4cccnc4)c3[nH]2)n1 [compound 80] | 0.083 µM
O=C(NCc1ncccc1F)c1coc(CCNCCc2nc3cc(-c4cccc5c4CCCC5)ccc3[nH]2)n1 [compound 82] | 0.015 µM
Cc1cccc(-c2ccc3[nH]c(CCNCCc4nc(C(=O)NCc5ncccc5F)co4)nc3c2)c1C [compound 84] | 0.012 µM
O=C(NCc1ncccc1F)c1coc(CCNCCc2nc3cc(-c4cccc(Cl)c4)ccc3[nH]2)n1 [compound 85] | 0.011 µM
O=C(NCc1ncccc1F)c1coc(CCNCCc2nc3cc(-c4cccc(-c5ncco5)c4)ccc3[nH]2)n1 [compound 87] | 0.014 µM
O=C(NCc1ncccc1F)c1coc(CCNCCc2nc3cc(-c4ccc5c(c4)OCCO5)ccc3[nH]2)n1 [compound 88] | 0.012 µM
O=C(NCc1ncccc1F)c1coc(CCNCCc2nc3cc(-c4ccc5c(c4)CCCC5)ccc3[nH]2)n1 [compound 89] | 0.01 µM

Other lines, results leading:

IC50 | SMILES
0.002 µM | O=C(NCc1ncccc1F)c1coc(CCNCCc2nc3cc(C#Cc4cccnc4)ccc3[nH]2)n1 [compound 73]
0.007 µM | COc1cccnc1CNC(=O)c1coc(CCNCCc2nc3cc(-c4ccc(C)cc4)ccc3[nH]2)n1 [compound 74]
0.002 µM | O=C(NCc1ncccc1F)c1coc(CCNCCc2nc3cc(CCc4ccccc4)ccc3[nH]2)n1 [compound 75]
0.003 µM | CN(C)C(=O)c1cccc(C#Cc2ccc3[nH]c(CCNCCc4nc(C(=O)NCc5ncccc5F)co4)nc3c2)c1 [compound 76]
0.007 µM | O=C(NCc1ncccc1F)c1coc(CCNCCc2nc3cc(-c4cccc5c4OCCO5)ccc3[nH]2)n1 [compound 81]
0.006 µM | COc1cccc(-c2ccc3[nH]c(CCNCCc4nc(C(=O)NCc5ncccc5F)co4)nc3c2)c1OC [compound 83]
0.009 µM | O=C(NCc1ncccc1F)c1coc(CCNCCc2nc3cc(-c4ccccc4-c4ncco4)ccc3[nH]2)n1 [compound 86]
0.0058 µM | O=C(NCc1ncccc1F)c1coc(CCNCCc2nc3cc(-c4ccc(-c5ncco5)cc4)ccc3[nH]2)n1 [compound 90]
